In patent US20250230193A1, “CYCLIC COMPOUND HAVING SELECTIVE KRAS INHIBITORY EFFECT ON HRAS AND NRAS” (CHUGAI SEIYAKU KABUSHIKI KAISHA, priority 2022, published 2025):
Where a SMILES comes first, the peptide text is derived from it. Bridges are numbered along the chain shown (N, C = ends). [ ]: non-standard residue; d: D form. The star is where a group is joined. hPhe(3-Cl-4-CF3) = N[C@@H](CCc1ccc(C(F)(F)F)c(Cl)c1)C(=O)O; NPrPhe(4-CF3) = CCCN[C@@H](Cc1ccc(C(F)(F)F)cc1)C(=O)O; NPrPhe(4-Me) = CCCN[C@@H](Cc1ccc(C)cc1)C(=O)O; NMeGly(cPent) = CN[C@H](C(=O)O)C1CCCC1; NMeD = CN[C@@H](CC(=O)O)C(=O)O; NMeL = CN[C@@H](CC(C)C)C(=O)O; Morpholide = C1CN(*)CCO1; Ac5c = NC1(C(=O)O)CCCC1; Sar = CNCC(=O)O

Experiments:
[1] = target: GDP-bound HRAS wild-type protein (Homo sapiens, UniProt P01112); test: Binding to HRAS by surface plasmon resonance (SPR), Single Cycle Kinetics; conditions: for HRAS/KRAS (ratio of KD value with respect to HRAS to KD value with respect to KRAS) / HRAS/KRAS (ratio of KD value for HRAS to KD value for KRAS): GDP-bound HRAS wild-type vs GDP-bound KRAS wild-type
[2] = target: GDP-bound NRAS wild-type protein (Homo sapiens, UniProt P01111); test: Binding to NRAS by surface plasmon resonance (SPR), Single Cycle Kinetics; conditions: for NRAS/KRAS (ratio of KD value with respect to NRAS to KD value with respect to KRAS) / NRAS/KRAS (ratio of KD value for NRAS to KD value for KRAS): GDP-bound NRAS wild-type vs GDP-bound KRAS wild-type
Chain of GDP-bound NRAS wild-type protein (P01111 whole entry): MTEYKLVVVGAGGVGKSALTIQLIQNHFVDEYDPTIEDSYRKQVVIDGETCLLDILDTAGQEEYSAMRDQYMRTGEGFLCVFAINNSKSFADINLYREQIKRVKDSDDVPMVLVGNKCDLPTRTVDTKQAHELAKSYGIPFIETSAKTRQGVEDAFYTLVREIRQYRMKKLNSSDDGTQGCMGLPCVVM

Chain of GDP-bound HRAS wild-type protein (P01112 whole entry): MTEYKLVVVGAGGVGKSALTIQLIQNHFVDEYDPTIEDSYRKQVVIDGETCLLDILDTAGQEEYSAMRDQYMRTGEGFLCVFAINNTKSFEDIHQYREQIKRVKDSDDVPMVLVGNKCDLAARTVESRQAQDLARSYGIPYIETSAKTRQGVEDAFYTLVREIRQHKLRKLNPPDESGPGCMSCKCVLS

## CCO[C@@H]1C[C@H]2C(=O)NC3(CCC3)C(=O)N(C)[C@@H](C3CCCC3)C(=O)N(C)[C@H](C(=O)N3CCOCC3)CC(=O)N(C)[C@@H](CC(C)C)C(=O)N[C@@H]([C@@H](C)CC)C(=O)N(C)CC(=O)N(C)[C@H]3C/C=C\CCN(C3=O)[C@@H](Cc3ccc(C(F)(F)F)cc3)C(=O)N(C)CC(=O)N[C@@H](CCc3ccc(C(F)(F)F)c(Cl)c3)C(=O)N2C1 [PP0825]
[1]; SPR
  HRAS/KRAS (ratio of KD value with respect to HRAS to KD value with respect to KRAS): A (a compound having 10 or more and less than 20 is denoted as A)
[2]; SPR
  NRAS/KRAS (ratio of KD value with respect to NRAS to KD value with respect to KRAS): A (a compound having 10 or more and less than 20 is denoted as A)

## CCCN(C)C(=O)[C@@H]1CC(=O)N(C)[C@@H](CC(F)F)C(=O)N[C@@H]([C@@H](C)CC)C(=O)N(C)CC(=O)N(C)[C@H]2C/C=C\CCN(C2=O)[C@@H](Cc2ccc(C(F)(F)F)cc2)C(=O)N(C)CC(=O)N[C@@H](CCc2cc(F)c(C(F)(F)F)c(F)c2)C(=O)N2C[C@H](F)C[C@H]2C(=O)NC2(CC(C)(C)C2)C(=O)N(C)[C@@H](C2CCCC2)C(=O)N1C [PP1687]
[1]; SPR
  HRAS/KRAS (ratio of KD value for HRAS to KD value for KRAS): A (a compound having 10 or more and less than 20 is denoted as A)
[2]; SPR
  NRAS/KRAS (ratio of KD value for NRAS to KD value for KRAS): A (a compound having 10 or more and less than 20 is denoted as A)

## CCC[C@H]1C(=O)N[C@@H]([C@@H](C)CC)C(=O)N(C)CC(=O)N(C)[C@H]2C/C=C\CCN(C2=O)[C@@H](Cc2ccc(C(F)(F)F)cc2)C(=O)N(C)CC(=O)N[C@@H](CCc2ccc(Cl)c(Cl)c2)C(=O)N2C[C@H](OCC)C[C@H]2C(=O)NC2(CC(C)(C)C2)C(=O)N(C)[C@@H](C2CCCC2)C(=O)N(C)[C@H](C(=O)N(C)C)CC(=O)N1C [PP1932]
[1]; SPR
  HRAS/KRAS (ratio of KD value for HRAS to KD value for KRAS): A (a compound having 10 or more and less than 20 is denoted as A)
[2]; SPR
  NRAS/KRAS (ratio of KD value for NRAS to KD value for KRAS): A (a compound having 10 or more and less than 20 is denoted as A)

## CCO[C@@H]1C[C@H]2C(=O)NC3(CC(C)(C)C3)C(=O)N(C)[C@@H](C3CCCC3)C(=O)N(C)[C@H](C(=O)N(C)CC)CC(=O)N(C)[C@@H](CC)C(=O)N[C@@H]([C@@H](C)CC)C(=O)N(C)CC(=O)N(C)[C@H]3C/C=C\CCN(C3=O)[C@@H](Cc3ccc(C(F)(F)F)cc3)C(=O)N(C)CC(=O)N[C@@H](CCc3ccc(C(F)(F)F)c(Cl)c3)C(=O)N2C1 [PP2823]
[1]; KD ratio HRAS/KRAS, class symbols
  HRAS/KRAS (ratio of KD value with respect to GDP-bound HRAS wild-type protein to KD value with respect to KRAS): A (a compound having 10 or more and less than 20 is denoted as A)
[2]; KD ratio NRAS/KRAS, class symbols
  NRAS/KRAS (ratio of KD value with respect to GDP-bound NRAS wild-type protein to KD value with respect to KRAS): A (a compound having 10 or more and less than 20 is denoted as A)

## CCCN1C(=O)CN(C)C(=O)CN(C)C(=O)[C@H]([C@@H](C)CC)NC(=O)[C@H](CC(C)C)N(C)C(=O)C[C@@H](C(=O)N2CCOCC2)N(C)C(=O)[C@H](C2CCCC2)N(C)C(=O)C2(CCCC2)NC(=O)[C@@H]2CCCN2C(=O)[C@H](CCc2ccc(C(F)(F)F)c(Cl)c2)NC(=O)CN(C)C(=O)[C@@H]1Cc1ccc(C)cc1 [PP0059] ([NMeL]I[Sar][Sar][NPrPhe(4-Me)][Sar][hPhe(3-Cl-4-CF3)]P[Ac5c][NMeGly(cPent)][NMeD]-Morpholide; lactam N-11)
[1]; KD ratio HRAS/KRAS, SPR
  HRAS/KRAS (ratio of KD for GDP-bound HRAS wild-type to KD for KRAS): C (A compound having a KD ratio of 0.1 or more and less than 3 is denoted as C)
[2]; KD ratio NRAS/KRAS, SPR
  NRAS/KRAS (ratio of KD for GDP-bound NRAS wild-type to KD for KRAS): B (a compound having 3 or more and less than 10 is denoted as B)

## CC[C@H](C)[C@@H]1NC(=O)[C@H](CC(C)C)N(C)C(=O)C[C@@H](C(=O)N2CCOCC2)N(C)C(=O)[C@H](C2CCCC2)N(C)C(=O)C2(CCC2)NC(=O)[C@@H]2C[C@@H](OC)CN2C(=O)[C@H](CCc2cc(F)c(C(F)(F)F)c(F)c2)NC(=O)CN(C)C(=O)[C@H](Cc2ccc(C(F)(F)F)cc2)N2CCCC[C@@H](C2=O)N(C)C(=O)CN(C)C1=O [PP1003]
[1]; SPR
  HRAS/KRAS (ratio of KD value with respect to HRAS to KD value with respect to KRAS): B (a compound having 3 or more and less than 10 is denoted as B)
[2]; SPR
  NRAS/KRAS (ratio of KD value with respect to NRAS to KD value with respect to KRAS): C (A compound having a KD ratio of 0.1 or more and less than 3 is denoted as C)

## CCCN1C(=O)CN(C)C(=O)[C@H](C)NC(=O)[C@H]([C@@H](C)CC)NC(=O)[C@H](CC(C)C)N(C)C(=O)C[C@@H](C(=O)N2CCOCC2)N(C)C(=O)[C@H](C2CCCC2)N(C)C(=O)C2(CCCC2)NC(=O)[C@@H]2CCCN2C(=O)[C@H](CCc2ccc(C(F)(F)F)c(Cl)c2)NC(=O)CN(C)C(=O)[C@@H]1Cc1ccc(C(F)(F)F)cc1 [PP1971] ([NMeL]IA[Sar][NPrPhe(4-CF3)][Sar][hPhe(3-Cl-4-CF3)]P[Ac5c][NMeGly(cPent)][NMeD]-Morpholide; lactam N-11)
[1]; SPR
  HRAS/KRAS (ratio of KD value for HRAS to KD value for KRAS): B (a compound having 3 or more and less than 10 is denoted as B)
[2]; SPR
  NRAS/KRAS (ratio of KD value for NRAS to KD value for KRAS): B (a compound having 3 or more and less than 10 is denoted as B)
